Common to all, as to assay: competitive isoTOP-ABPP
Common to all, as to type: binding

Experiment [1] has as its target T1, UBA2 SUMO-activating enzyme subunit 2 (Homo sapiens, UniProt Q9UBT2).
T1 construct: endogenous in cells; host or cells: MDA-MB-231 (soluble fraction of lysate)
T1 sequence (Q9UBT2 1-640): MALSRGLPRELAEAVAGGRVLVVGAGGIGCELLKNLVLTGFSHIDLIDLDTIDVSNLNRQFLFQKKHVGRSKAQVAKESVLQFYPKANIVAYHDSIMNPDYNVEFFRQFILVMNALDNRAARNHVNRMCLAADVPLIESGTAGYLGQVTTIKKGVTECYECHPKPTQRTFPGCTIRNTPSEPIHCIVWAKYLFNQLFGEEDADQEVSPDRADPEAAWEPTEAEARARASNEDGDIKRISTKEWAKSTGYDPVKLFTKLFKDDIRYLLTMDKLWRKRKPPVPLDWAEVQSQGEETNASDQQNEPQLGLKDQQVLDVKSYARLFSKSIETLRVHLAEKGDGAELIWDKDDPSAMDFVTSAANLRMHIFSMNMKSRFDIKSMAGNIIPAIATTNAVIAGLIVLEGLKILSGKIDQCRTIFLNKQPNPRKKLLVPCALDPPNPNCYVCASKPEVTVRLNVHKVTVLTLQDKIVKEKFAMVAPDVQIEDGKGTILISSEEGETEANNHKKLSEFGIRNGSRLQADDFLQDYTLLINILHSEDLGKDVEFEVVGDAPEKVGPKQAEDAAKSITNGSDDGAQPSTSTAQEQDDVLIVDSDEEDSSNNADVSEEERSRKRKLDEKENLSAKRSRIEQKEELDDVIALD
T1 sequence (Q9UBE0 1-346 partner): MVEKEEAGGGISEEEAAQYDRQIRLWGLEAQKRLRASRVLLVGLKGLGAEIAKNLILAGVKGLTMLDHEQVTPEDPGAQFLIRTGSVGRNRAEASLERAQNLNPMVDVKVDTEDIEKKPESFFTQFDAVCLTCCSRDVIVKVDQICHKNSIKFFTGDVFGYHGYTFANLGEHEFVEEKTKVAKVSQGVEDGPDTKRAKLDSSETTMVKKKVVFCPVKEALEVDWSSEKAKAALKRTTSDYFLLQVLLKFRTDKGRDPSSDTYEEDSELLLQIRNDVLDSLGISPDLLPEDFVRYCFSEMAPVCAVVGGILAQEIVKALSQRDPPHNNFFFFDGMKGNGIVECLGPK
The note with it: 50 uM, in vitro. The procedure, abridged:
(§1)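 Readout: isotopic light/heavy MS1 peak-area ratio (R, DMSO heavy over compound light), median across peptides sharing a modified lysine. Lysate received fragment (activated esters 50 μM, guanidinylating agents 100 μM final) or DMSO, then 0.1 mM STP-alkyne probe for 1 h at ambient temperature.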

In experiment [2] the target is T2, IDH3B Isocitrate dehydrogenase (Homo sapiens, UniProt O43837).
T2 construct: isoTOP-ABPP experiments performed in cell lysates (in vitro); endogenous in cells; host or cells: MDA-MB-231 soluble lysate
The procedure, abridged:
as §1

The target of experiment [3] is T3, CCDC173 Coiled-coil domain-containing protein 173 (Homo sapiens, UniProt Q0VFZ6).
T3 construct: isoTOP-ABPP experiments performed in cell lysates (in vitro); endogenous in cells; host or cells: soluble proteome of human cancer cell lines (MDA-MB-231, Ramos, Jurkat)
The note with it: 50 uM, in vitro. In outline:
as §1

The target in a further experiment is T4, CCNA2 Cyclin-A2 (Homo sapiens, UniProt P20248).
T4 construct: isoTOP-ABPP experiments performed in cell lysates (in vitro); endogenous in cells; host or cells: soluble proteome of human cancer cell lines (MDA-MB-231; Ramos and Jurkat also prepared)
Particulars: 50 uM, in vitro. The procedure, abridged:
as §1

Experiment [4] addresses T5, ACIN1 Apoptotic chromatin condensation inducer in the nucleus (Homo sapiens, UniProt Q9UKV3).
T5 construct: endogenous in cells; host or cells: MDA-MB-231 lysate
The note with it: 50 uM_231_sol_in vitro. The procedure, abridged: as §1

Structures are written as SMILES.

T4 sequence (P20248 whole entry): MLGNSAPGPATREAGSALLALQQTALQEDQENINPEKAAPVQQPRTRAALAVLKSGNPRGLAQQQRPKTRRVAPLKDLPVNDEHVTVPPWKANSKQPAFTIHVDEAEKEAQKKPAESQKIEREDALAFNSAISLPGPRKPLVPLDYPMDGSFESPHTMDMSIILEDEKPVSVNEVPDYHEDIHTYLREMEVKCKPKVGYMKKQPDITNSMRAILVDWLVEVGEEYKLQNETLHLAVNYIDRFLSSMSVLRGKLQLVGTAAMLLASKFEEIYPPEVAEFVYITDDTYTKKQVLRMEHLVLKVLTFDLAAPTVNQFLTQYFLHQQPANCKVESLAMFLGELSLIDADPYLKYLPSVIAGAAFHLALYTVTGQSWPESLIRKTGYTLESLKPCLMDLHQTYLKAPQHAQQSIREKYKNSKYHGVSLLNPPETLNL
T3 sequence (Q0VFZ6 whole entry, the tested form may be a part): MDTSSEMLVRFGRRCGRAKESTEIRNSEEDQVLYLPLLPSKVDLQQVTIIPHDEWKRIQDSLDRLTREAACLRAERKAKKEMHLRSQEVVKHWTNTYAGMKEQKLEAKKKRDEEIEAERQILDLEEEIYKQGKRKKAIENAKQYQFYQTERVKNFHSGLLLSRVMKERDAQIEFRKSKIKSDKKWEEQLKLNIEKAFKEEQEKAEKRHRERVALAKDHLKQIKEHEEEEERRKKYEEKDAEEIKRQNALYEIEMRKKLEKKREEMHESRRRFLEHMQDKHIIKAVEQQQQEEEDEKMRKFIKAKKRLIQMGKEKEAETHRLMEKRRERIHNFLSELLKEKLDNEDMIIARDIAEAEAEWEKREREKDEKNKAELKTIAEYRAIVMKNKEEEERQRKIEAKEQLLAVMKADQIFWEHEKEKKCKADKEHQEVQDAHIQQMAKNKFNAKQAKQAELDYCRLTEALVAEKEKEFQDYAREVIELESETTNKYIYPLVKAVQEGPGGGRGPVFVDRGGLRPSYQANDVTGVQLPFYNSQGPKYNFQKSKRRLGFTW
T5 sequence (Q9UKV3 whole entry): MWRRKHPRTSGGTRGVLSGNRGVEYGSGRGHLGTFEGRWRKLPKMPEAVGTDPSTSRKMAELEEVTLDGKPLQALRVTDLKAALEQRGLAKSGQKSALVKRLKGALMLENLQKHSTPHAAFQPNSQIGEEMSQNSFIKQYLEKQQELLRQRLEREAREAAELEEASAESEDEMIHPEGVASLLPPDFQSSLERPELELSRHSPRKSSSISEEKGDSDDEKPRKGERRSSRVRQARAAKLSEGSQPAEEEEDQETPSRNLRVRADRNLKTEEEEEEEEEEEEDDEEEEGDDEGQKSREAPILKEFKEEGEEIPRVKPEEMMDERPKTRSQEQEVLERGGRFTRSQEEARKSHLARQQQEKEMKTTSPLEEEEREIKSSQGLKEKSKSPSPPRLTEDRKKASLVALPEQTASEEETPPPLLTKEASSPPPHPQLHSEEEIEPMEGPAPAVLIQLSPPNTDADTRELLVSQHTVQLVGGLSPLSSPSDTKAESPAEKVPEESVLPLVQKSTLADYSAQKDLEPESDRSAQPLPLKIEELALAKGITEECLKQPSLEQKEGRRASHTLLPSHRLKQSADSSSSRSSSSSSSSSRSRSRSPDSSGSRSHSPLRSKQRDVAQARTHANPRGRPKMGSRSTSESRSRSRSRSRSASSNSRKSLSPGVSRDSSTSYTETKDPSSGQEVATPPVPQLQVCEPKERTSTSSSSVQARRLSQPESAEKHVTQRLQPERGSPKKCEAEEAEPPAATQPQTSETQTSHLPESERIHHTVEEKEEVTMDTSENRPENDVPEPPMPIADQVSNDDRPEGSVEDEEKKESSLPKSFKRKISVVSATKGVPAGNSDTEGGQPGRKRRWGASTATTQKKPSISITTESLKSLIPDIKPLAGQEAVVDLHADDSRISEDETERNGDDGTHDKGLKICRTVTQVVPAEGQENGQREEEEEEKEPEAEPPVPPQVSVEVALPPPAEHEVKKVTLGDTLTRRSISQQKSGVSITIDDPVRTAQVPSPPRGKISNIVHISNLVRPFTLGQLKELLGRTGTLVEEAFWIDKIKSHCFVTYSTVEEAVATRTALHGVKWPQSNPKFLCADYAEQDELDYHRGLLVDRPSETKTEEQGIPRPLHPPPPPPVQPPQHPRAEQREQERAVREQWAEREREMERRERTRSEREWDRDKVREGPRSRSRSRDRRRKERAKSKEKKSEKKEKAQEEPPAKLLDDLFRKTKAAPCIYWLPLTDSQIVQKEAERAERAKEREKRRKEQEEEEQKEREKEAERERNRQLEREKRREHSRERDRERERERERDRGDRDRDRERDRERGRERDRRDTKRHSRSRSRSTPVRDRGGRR
T2 sequence (O43837 35-385): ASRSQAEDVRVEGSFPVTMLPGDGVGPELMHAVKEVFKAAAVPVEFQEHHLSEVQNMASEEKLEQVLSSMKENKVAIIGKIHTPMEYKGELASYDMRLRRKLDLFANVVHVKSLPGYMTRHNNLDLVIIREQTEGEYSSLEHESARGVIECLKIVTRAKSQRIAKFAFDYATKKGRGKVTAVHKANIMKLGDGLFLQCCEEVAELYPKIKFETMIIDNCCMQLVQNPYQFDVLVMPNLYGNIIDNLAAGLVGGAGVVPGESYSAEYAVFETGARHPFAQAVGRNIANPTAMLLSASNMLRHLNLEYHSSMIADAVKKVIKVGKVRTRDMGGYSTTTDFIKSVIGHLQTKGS

For the compound `O=C(Oc1c(F)c(F)c(F)c(F)c1F)C(c1ccccc1)c1ccccc1` [fragment 20, Pentafluorophenyl 2,2-diphenylacetate], the “R value (DMSO/fragment) for probe 1 labeling” value in experiment [1] (Q9UBT2_K409, 231 sol) is 4.1; in experiment [2] (O43837_K207, 50 uM, 231 sol, in vitro), 6.5.

As for `O=C(Oc1c(F)c(F)c(F)c(F)c1F)c1cc(C(F)(F)F)cc(C(F)(F)F)c1` [fragment 21, Pentafluorophenyl 3,5-bis(trifluoromethyl)benzoate], the “R value (DMSO/fragment) for probe 1 labeling” value in experiment [3] (Q0VFZ6_K312, 231 sol) is given as 20.0.

For the compound `O=C(Oc1ccc([N+](=O)[O-])cc1[N+](=O)[O-])C(c1ccccc1)c1ccccc1` [fragment 30, 2,4-Dinitrophenyl 2,2-diphenylacetate], the “isoTOP-ABPP reactivity ratio at lysine Q9UBT2_K409” value in experiment [1] (231 sol) worked out at 7.3.

Turning to `O=C(Oc1ccc([N+](=O)[O-])cc1[N+](=O)[O-])c1cc(C(F)(F)F)cc(C(F)(F)F)c1` [fragment 31, 2,4-Dinitrophenyl 3,5-bis(trifluoromethyl)benzoate], the “isoTOP-ABPP reactivity ratio at lysine Q9UBT2_K409” value in experiment [1] (231 sol) turned out to be 6.2.

In the case of `COc1cc(CCC(=O)Oc2ccc([N+](=O)[O-])cc2[N+](=O)[O-])cc(OC)c1OC` [fragment 33, 2,4-Dinitrophenyl 3-(3,4,5-trimethoxyphenyl)propanoate], the “isoTOP-ABPP reactivity ratio at lysine P20248_K54” value at CCNA2 Cyclin-A2 (231 sol) was found to be 5.4.

In the case of `O=C(Oc1ccc([N+](=O)[O-])cc1[N+](=O)[O-])c1ccc2ccccc2n1` [fragment 35, 2,4-Dinitrophenyl quinoline-2-carboxylate], the “isoTOP-ABPP ratio (R) at liganded lysine Q0VFZ6_K312” value in experiment [3] (sol, 231) was determined as 14.4.

In the case of `O=C(CCc1coc2cc(F)ccc2c1=O)Oc1ccc([N+](=O)[O-])cc1[N+](=O)[O-]` [fragment 36, 2,4-Dinitrophenyl 3-(7-fluoro-4-oxo-4H-chromen-3-yl)propanoate], the “isoTOP-ABPP ratio (R) at liganded lysine Q9UBT2_K409” value in experiment [1] (sol, 231) is listed as 3.6.

`O=C(Oc1ccc([N+](=O)[O-])cc1[N+](=O)[O-])c1ccc(-c2ccccc2)cc1` [fragment 37, 2,4-Dinitrophenyl [1,1′-biphenyl]-4-carboxylate]: at CCNA2 Cyclin-A2 (sol, 231), the “isoTOP-ABPP ratio (R) at liganded lysine P20248_K54” value is 0.5.

As for `N#Cc1ccc(C(=O)Oc2ccc([N+](=O)[O-])cc2[N+](=O)[O-])cc1` [fragment 44, 2,4-Dinitrophenyl 4-cyanobenzoate], the “isoTOP-ABPP ratio, lysine Q9UKV3_K103” value in experiment [4] is 1.0.

Consider `O=C(ON1C(=O)CCC1=O)c1cc(C(F)(F)F)cc(C(F)(F)F)c1` [fragment 46, 3,5-Bis(trifluoromethyl)benzoic acid NHS ester], for which the “isoTOP-ABPP ratio, lysine Q9UKV3_K103” value in experiment [4] was determined as 16.6.

Take `CC(C)(C)OC(=O)N=C(NC(=O)OC(C)(C)C)n1cccn1` [fragment 50, reference compound]: the “isoTOP-ABPP ratio, lysine O43837_K207” value in experiment [2] (100 uM_231_sol_in vitro) is 3.1.

Values taken from patent US20210255193A1, “LYSINE REACTIVE PROBES AND USES THEREOF” (The Scripps Research Institute, priority 2017, published 2021).
